Reference: publication PMC5750218, “Protein-inspired antibiotics active against vancomycin- and daptomycin-resistant bacteria” (Nature Communications, 2018)
Values after ≈ are worked out from the molar mass of the structure shown. Read-outs that look alike come from different tables or passages of the source.

Legend:
[1] = test system: S. aureus ATCC 43300 MRSA; experiment: microbe, parasite or virus in culture; type: cell-based, Staphylococcus aureus; settings: Staphylococcus aureus, 24 h
Summary of the method: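 Twofold broth microdilution in Mueller Hinton broth used compounds from 8 to 0.003 µg mL^−1. Mid-log cultures were added at 5 × 10^5 CFU mL^−1 and incubated for 24 h at 37 °C. MIC was the lowest concentration with no visible growth.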

S. pneumoniae ATCC 33400 = experiment: microbe, parasite or virus in culture; type: cell-based, Streptococcus pneumoniae; settings: Streptococcus pneumoniae, ATCC33400, 24 h
Protocol: (§1) The compounds, along with standard antibiotics were serially diluted twofold across the wells of 96-well non-binding surface (NBS) polystyrene plates (Corning 3641). […] Standards ranged from 64 to 0.03 µg mL^−1 and compounds from 8 to 0.003 µg mL^−1 with final assay volumes of 100 µL per well. Gram-positive bacteria were cultured in Mueller Hinton broth (MHB) (Bactolaboratories, Cat. no. 211443) at 37 °C overnight. A sample of each culture was then diluted 40-fold in fresh MHB and incubated at 37 °C for 2–3 h. The resultant mid-log phase cultures were added to the compound-containing 96-well plates to give a final cell density of 5 × 10^5 colony forming unit (CFU) mL^−1. All the plates were covered and incubated at 37 °C for 24 h. MICs were the lowest concentration showing no visible growth.

[2] = test system: S. pneumoniae ATCC 700677 MDR; experiment: microbe, parasite or virus in culture; type: cell-based, Streptococcus pneumoniae; settings: for MIC: Streptococcus pneumoniae, ATCC700677, 24 h
Protocol: as §1

Haemolysis assay = type: cell-based; settings: human, read-out: % Human Whole Blood Haemolysis
[3] = In vivo pharmacokinetics in mice; settings: mouse; for bioavailability: subcutaneous, SC 10 mg kg-1 vs IV 2 mg kg-1; for concentration at […] / level at […]: 0.250 h; for concentration at 0.5 h / level at 0.5 h: 0.500 h; for MRT inf: read-out: MRT0-inf; for MRT last: read-out: MRT0-last; for Vd: read-out: Vdss
Protocol: Performed by WuXi AppTec (Shanghai) Co., Ltd. Seven to 9-week-old male CD1 mice (SLAC Laboratory Animal Co. Ltd., Shanghai, China) weighing 25–35 g were acclimated for approximate 3 days before being used in the study. Animals are group housed during acclimation and in-life study in compliance with the National Research Council 'Guide for the Care and Use of Laboratory Animals.' The animal room environment is controlled (target conditions: temperature 18 to 26 °C, relative humidity 30–70%, 12 h artificial light and 12 h dark) with temperature and relative humidity monitored daily. Animals were deprived of food for approximately 16 h before formulation administration then allowed access to Certified Rodent Diet (Catalogue # M-01F, Shanghai SLAC Laboratory Animal Co. Ltd.) ad libitum 4 h post dosing. Water was autoclaved before being provided to the animals ad libitum. Formulations of compounds were prepared on the morning of the dosing day. The formulation for the IV group was filtered with filter of 0.22 μm before being dosed to animals. After dose formulation preparation, duplicate 50 μL aliquots were removed from each dose formulation for use in dose validation. For each compound studied, three mice were dosed intravenously (IV) administered to each animal via tail vein per facility SOPs using test article formulated in deionised water at 1 mg mL^−1 with a dose volume of 2 mg mL^−1, providing a dose of 2 mg mL^−1 (based on free base concentration). An additional three mice were dosed subcutaneously (SC) administered to each animal via subcutaneous bolus on each animals’ back per facility SOPs using test article formulated in deionised water at 2 mg mL^−1 with a dose volume of 5 mg mL^−1, providing a dose of 10 mg mL^−1. All animals were killed at the last study time point (100% CO2 was introduced into the animal box).
Plasma samples were collected as the following target times after each dose administration: IV Sampling Time points (hours post dosing): 0, 0.083, 0.25, 0.5, 1, 2, 4, 8 and 24. SC Sampling Time points (hours post dosing): 0, 0.25, 0.5, 1, 2, 4, 8 and 24. Approximately 30 μL blood was obtained via submandibular or saphenous vein for the first several time points. For the last time point, samples were collected via cardiac puncture while the mouse was under anaesthesia. All blood samples were transferred into pre-chilled plastic microcentrifuge tubes containing 2 μL of ethylenediaminetetraacetic acid dipotassium salt (K2-EDTA) (0.5 M) as anticoagulant and placed on wet ice until centrifugation. Harvested blood samples were centrifuged within 30 min of collection at 7000 rpm (8546 × g) 4 °C for about 10 min. After centrifugation, plasma was transferred into another pre-labelled and pre-chilled polypropylene microcentrifuge tubes, then quick-frozen over dry ice and stored at −70 ± 10 °C until LC/MSMS analysis.
LC-MS/MS methods for the quantitative determination of the test article in mouse plasma were developed with an internal standard. Benchtop stability of the compound in mouse plasma was determined at mid QC concentrations in triplicate at 0, 2 h at room temperature. The stability was determined using mean peak area ratio of T2/T0 sample. If the mean peak area ratio is within 80%~120%, the test article in the plasma is considered stable for 2 h at room temperature. […] A set of QC samples consists of three concentration levels (low, middle and high). The sample analysis was performed concurrently with a set of calibration standards and two sets of QC samples using the LC-MS/MS method.
Plasma concentration vs. time data from individual animals was analysed by WinNonLin non-compartmental model (Phoenix WinNonlin 6.2.1, Pharsight, Mountain View, CA). Pharmacokinetic parameter C 0, T ½, CL, Vdss, C max, T max, AUC0-last, AUC0-inf, %F, MRT0-last, MRT0-inf and graphs of plasma concentration vs. time profile were derived.

[4] = test system: Bacillus subtilis ATCC 6633; experiment: microbe, parasite or virus in culture; type: cell-based; settings: for MIC: Bacillus subtilis; for Molar excess of Ac2Kaa ligand required to antagonise antibacterial activity: [ligand]/[antibiotic], B. subtilis ATCC 6633, 24 h
S. aureus ATCC 43300 = experiment: Membrane permeability assay (propidium iodide); type: cell-based, Staphylococcus aureus
Protocol: To evaluate the ability of the compounds to disrupt the cytoplasmic membrane integrity, the membrane impermeable fluorescent DNA intercalating dye propidium iodide (PI) was used. Early exponential phase cells were pelleted and washed twice in 10 mM HEPES buffer (pH 7.4) containing 50 µg mL^−1 of CaCl2 and 5 mM glucose, and then re-suspended in the same buffer (4 × 10^8 CFU mL^−1). Cell suspension was added to a 384-well black walled polystyrene plate (Corning, CLS3573) containing compounds, giving a final concentration of 16 µg mL^−1. After 1 h incubation at 37 °C, 5 µg mL^−1 of PI was added and fluorescence was monitored for 90 min using a Tecan Infinite® m1000 Pro Multi-mode reader (excitation/emission 535/620 nm). Data were corrected by subtraction of fluorescence signal arising from untreated cells in the presence of PI. […] Each sample was tested in quadruplicate and independent assays were performed twice showing similar results. Data was analysed and presented using Prism software.

[5] = 37 °C, 20 µM
Protocol: (§2) Briefly, test compounds (20 μM) were prepared from a 0.2 mM H2O stock solution (40 μL in 400 μL assay volume) except eucatropine, which was 300 μg mL^−1 in 100% DMSO (10 μL in 400 μL assay volume equivalent to 23 μM). The precipitating solution was prepared by adding 5 μL of 10 mM carbutamide in DMSO to 100 mL acetonitrile (final concentration: 135.5 ng mL^−1 or 0.5 μM carbutamide). The human plasma sample (pooled normal human plasma sodium heparin anticoagulant, 2 µL, Cat No.: [sequence], BioReclamation) and phosphate-buffer saline (PBS, pH 7.4 isotonic) were pre-heated at 37 °C for 30 min. 40 μL of test compounds (0.2 mM) were added to protein-low binding Eppendorf tubes, 160 μL of buffer was added, and the mixture was vortexed. For eucatropine, 10 μL of eucatropine (300 μg mL^−1) was added to a protein-low binding Eppendorf tube, 190 μL of buffer was added, and the mixture was vortexed. In each case, 200 μL of plasma was added and the resultant mixture vortexed. For the initial time point (reaction time t = 0 h), 50 μL of sample was immediately transferred into a protein-low binding Eppendorf tube and quenched with 150 μL of the ice-cold precipitating solution, followed by vortexing and subsequent storage at 4 °C. For the remaining time points, the plasma solution was incubated and shaken (150 rpm) at 37 °C. 50 μL aliquots were collected at time points of 0, 1, 3, 6 and 24 h and quenched with 150 μL the ice-cold precipitating solution. All samples were placed in a 4 °C fridge for 30 min then centrifuged at 14,000 × g for 8 min at 4 °C. The supernatant (100 μL) was transferred to a glass vial insert and stored at 4 °C until LC-MS/MS analysis. The percentage of test compounds remaining at the individual time points relative to sample at time point 0 h were reported.

in vitro = settings: human, 50% human plasma (pooled, sodium heparin) in PBS, pH 7.4
Protocol: as §2

[6] = male, CD1, plasma, 2 mg/kg IV, read-out: Plasma concentration, Mean IV
[7] = male, CD1, plasma, 10 mg/kg SC, n=3, read-out: Plasma concentration, Mean SC
[8] = male, CD1, plasma, 10 mg/kg SC, read-out: Plasma concentration, Mean SC
[9] = male, CD1, plasma, IV 2 mg kg-1
[10] = male, CD1, plasma, SC 10 mg kg-1

Question: Which results are given for `CN[C@H](CC(C)C)C(=O)N[C@H]1C(=O)N[C@@H](CC(N)=O)C(=O)N[C@H]2C(=O)N[C@H]3C(=O)N[C@H](C(=O)N[C@H](C(=O)O)c4cc(O)cc(O)c4-c4cc3ccc4O)[C@H](O)c3ccc(c(Cl)c3)Oc3cc2cc(c3O[C@@H]2O[C@H](CO)[C@@H](O)[C@H](O)[C@H]2O[C@H]2C[C@](C)(N)[C@H](O)[C@H](C)O2)Oc2ccc(cc2Cl)[C@H]1O` [Compound 1, Vancomycin]?
Answer: MIC ([1]; read-out: MIC S. aureus ATCC 43300 MRSA, 1% Survanta): 0.5 µg/mL (≈ 0.345 µM); MIC ([1]; read-out: MIC S. aureus ATCC 43300 MRSA, 5% Survanta): 0.5 µg/mL (≈ 0.345 µM); MIC ([1]; read-out: MIC S. aureus ATCC 43300 MRSA, no added Survanta): 0.5 µg/mL (≈ 0.345 µM); MIC (S. pneumoniae ATCC 33400; read-out: MIC S. pneumoniae ATCC 33400, 1% Survanta): 0.5 µg/mL (≈ 0.345 µM); MIC (S. pneumoniae ATCC 33400; read-out: MIC S. pneumoniae ATCC 33400, 5% Survanta): 0.5 µg/mL (≈ 0.345 µM); MIC (S. pneumoniae ATCC 33400; read-out: MIC S. pneumoniae ATCC 33400, no added Survanta): 0.5 µg/mL (≈ 0.345 µM); MIC ([2]; read-out: MIC S. pneumoniae ATCC 700677 MDR, 1% Survanta): 0.5 µg/mL (≈ 0.345 µM); MIC ([2]; read-out: MIC S. pneumoniae ATCC 700677 MDR, 5% Survanta): 0.5 µg/mL (≈ 0.345 µM); MIC ([2]; read-out: MIC S. pneumoniae ATCC 700677 MDR, no added Survanta): 0.5 µg/mL (≈ 0.345 µM); hemolysis at 3 h, 25 µg mL-1 (Haemolysis assay; 25 µg mL-1): 0.1%; hemolysis at 3 h, 50 µg mL-1 (Haemolysis assay; 50 µg mL-1): 0.4%; hemolysis at 3 h, 100 µg mL-1 (Haemolysis assay; 100 µg mL-1): 0.3%; hemolysis at 3 h, 200 µg mL-1 (Haemolysis assay; 200 µg mL-1): 0.8%; hemolysis at 3 h, 400 µg mL-1 (Haemolysis assay; 400 µg mL-1): 0.8%; hemolysis at 3 h, 800 µg mL-1 (Haemolysis assay; 800 µg mL-1): 0.8%; hemolysis at 3 h, 1600 µg mL-1 (Haemolysis assay; 1600 µg mL-1): 1.5%; bioavailability ([3]; male, CD1, plasma): 70.5%; concentration at 5 min ([3]; male, CD1, plasma, 2 mg/kg IV, 5 min, n=3): 5790 ng/mL; concentration at […] [3, 6]: 3590 ng/mL; concentration at 0.5 h [3, 6]: 1980 ng/mL; concentration at 1 h [3, 6]: 762 ng/mL; concentration at 2 h [3, 6]: 193 ng/mL; concentration at 4 h [3, 6]: 27.5 ng/mL; concentration at […] [3, 7]: 10700 ng/mL; concentration at 0.5 h [3, 8]: 9580 ng/mL; concentration at 1 h [3, 8]: 5200 ng/mL; concentration at 2 h [3, 8]: 1270 ng/mL; concentration at 4 h [3, 8]: 137 ng/mL; concentration at 8 h ([3]; male, CD1, plasma, 10 mg/kg SC, 8.00 h): 6.17 ng/mL; AUC(0-inf) [3, 9]: 3240 ng·h/mL; AUC(0-t) [3, 9]: 3210 ng·h/mL; C0 [3, 9]: 7360 ng/mL; clearance [3, 9]: 10.4 mL/min/kg; half-life [3, 9]: 0.64 h; MRT inf [3, 9]: 0.62 h; MRT last [3, 9]: 0.59 h; Vd [3, 9]: 0.39 L/kg; AUC(0-inf) [3, 10]: 11400 ng·h/mL; AUC(0-t) [3, 10]: 11400 ng·h/mL; Cmax [3, 10]: 10700 ng/mL; Tmax [3, 10]: 0.25 h; half-life [3, 10]: 0.8 h; MRT inf [3, 10]: 0.99 h; MRT last [3, 10]: 0.98 h; AUC0-inf/AUC0-last ([3]; IV 2 mg kg-1): 101%; Tlast ([3]; IV 2 mg kg-1): 4 h; AUC0-inf/AUC0-last ([3]; SC 10 mg kg-1): 100%; Tlast ([3]; SC 10 mg kg-1): 8 h; MIC ([4]; ATCC6633): 0.25 µg/mL (≈ 0.173 µM); MIC ([4]; ATCC6633, read-out: Ac2Kaa concentration required to neutralise MIC activity): 6.25 µg/mL (≈ 4.31 µM); Molar excess of Ac2Kaa ligand required to antagonise antibacterial activity [4]: 100; Molar excess of Ac2Kaa ligand required to antagonise antibacterial activity ([4]; listed as Vancomycin 1): 96; Membrane permeabilisation (propidium iodide fluorescence) (S. aureus ATCC 43300; 16 µg mL^−1, 1 h, MRSA ATCC 43300): little to no effect; % compound remaining after incubation in 50% human plasma, 0h [5]: 100%; remaining at 1 h, 20 µM (in vitro): 100%; remaining at 3 h, 20 µM (in vitro): 87%; remaining at 6 h, 20 µM (in vitro): 91%; remaining at 24 h, 20 µM (in vitro): 63%

Question: What does the source list for `CNC(=O)[C@H](CCCCNC(=O)[C@H]1NC(=O)[C@H]2NC(=O)[C@H](NC(=O)[C@@H]3NC(=O)[C@H](CC(N)=O)NC(=O)[C@H](NC(=O)[C@@H](CC(C)C)NC)[C@H](O)c4ccc(c(Cl)c4)Oc4cc3cc(c4O[C@@H]3O[C@H](CO)[C@@H](O)[C@H](O)[C@H]3O[C@H]3C[C@](C)(N)[C@H](O)[C@H](C)O3)Oc3ccc(cc3Cl)[C@H]2O)c2ccc(O)c(c2)-c2c(O)cc(O)cc21)NC(=O)[C@H](CCCCN)NC(=O)[C@H](CCCCN)NC(=O)[C@H](CCCCNC(=O)c1ccc(Oc2ccccc2)cc1)NC(=O)c1ccc(Oc2ccccc2)cc1` [Compound 24, POB2K-KK-K(Vancomycin)-NHMe]?
Answer: MIC S. pneumoniae ATCC 700677 MDR ([2]; 5% Survanta): 0.25 µg/mL (≈ 0.106 µM); MIC S. pneumoniae ATCC 700677 MDR ([2]; no added Survanta): ≤ 0.003 µg/mL; level at 5 min ([3]; male, CD1, plasma, 2 mg/kg IV, 5 min, n=3, read-out: Plasma concentration, Mean IV): 13800 ng/mL; level at […] [3, 6]: 10000 ng/mL; level at 0.5 h [3, 6]: 5230 ng/mL; level at 1 h [3, 6]: 3010 ng/mL; level at 2 h [3, 6]: 1210 ng/mL; level at 4 h [3, 6]: 285 ng/mL; level at 8 h ([3]; male, CD1, plasma, 2 mg/kg IV, 8.00 h, read-out: Plasma concentration, Mean IV): 81.9 ng/mL; level at […] [3, 7]: 227 ng/mL; level at 0.5 h [3, 8]: 548 ng/mL; level at 1 h [3, 8]: 1400 ng/mL; level at 2 h [3, 8]: 1920 ng/mL; level at 4 h [3, 8]: 2350 ng/mL; level at 8 h ([3]; male, CD1, plasma, 10 mg/kg SC, 8.00 h, read-out: Plasma concentration, Mean SC): 845 ng/mL; level at 24 h ([3]; male, CD1, plasma, 10 mg/kg SC, 24.0 h, read-out: Plasma concentration, Mean SC): 243 ng/mL; AUC0-inf/AUC0-last ([3]; IV 2 mg kg-1): 101%; AUC0-inf/AUC0-last ([3]; SC 10 mg kg-1): 113%; Tlast ([3]; SC 10 mg kg-1): 24 h; bioavailability ([3]; plasma): 36.3%; AUC(0-inf) ([3]; plasma, IV 2 mg kg-1): 11200 ng·h/mL; AUC(0-t) ([3]; plasma, IV 2 mg kg-1): 11000 ng·h/mL; C0 ([3]; plasma, IV 2 mg kg-1): 16300 ng/mL; clearance ([3]; plasma, IV 2 mg kg-1): 2.98 mL/min/kg; half-life ([3]; plasma, IV 2 mg kg-1): 2.29 h; MRT inf ([3]; plasma, IV 2 mg kg-1): 1.39 h; MRT last ([3]; plasma, IV 2 mg kg-1): 1.24 h; Vd ([3]; plasma, IV 2 mg kg-1): 0.248 L/kg; AUC(0-inf) ([3]; plasma, SC 10 mg kg-1): 22600 ng·h/mL; AUC(0-t) ([3]; plasma, SC 10 mg kg-1): 20000 ng·h/mL; Cmax ([3]; plasma, SC 10 mg kg-1): 2350 ng/mL; Tmax ([3]; plasma, SC 10 mg kg-1): 4 h; half-life ([3]; plasma, SC 10 mg kg-1): 6.97 h; MRT inf ([3]; plasma, SC 10 mg kg-1): 11 h; MRT last ([3]; plasma, SC 10 mg kg-1): 7.99 h; Membrane permeabilisation (propidium iodide fluorescence) (S. aureus ATCC 43300): comparable fluorescence intensity to oritavancin; % compound remaining after incubation in 50% human plasma, 0h [5]: 100%; remaining at 1 h, 20 µM (in vitro): 100%; remaining at 3 h, 20 µM (in vitro): 100%; remaining at 6 h, 20 µM (in vitro): 106%; remaining at 24 h, 20 µM (in vitro): 89%
